Measurements published in US6806230B1, “Pyrimidine derivatives and herbicides containing them” (Kumiai Chemical Industry Co., Ltd., priority 1999, dated 2004).

Experiments:
Assay type in all cases: in vivo
barnyard grass (Eo) [1] = assay: Test Example 1: herbicidal effects by flooded paddy field treatment; parameters: herbicidal effects, Eo (barnyard grass):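 0-5 growth inhibition grade; 5 = over 90%; 4 = 70-90%; 3 = 50-70%; 2 = 30-50%; 1 = 10-30%; 0 = under 10%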; conditions: dose 100 g active ingredient per 10 ares, examined on the 21st day after treatment, standards of Table 44
How it was run: (§1)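 Seeds sown in puddled paddy soil and flooded to 3 cm. Next day, a water-diluted wettable powder was dripped onto the water surface at 100 g active ingredient per 10 ares. Plants were grown in a greenhouse, and herbicidal effect was scored against a rating standard 21 days after treatment.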

monochoria (Mo) [2] = assay: as above; parameters: herbicidal effects, Mo (monochoria):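 0-5 growth inhibition grade; 5 = over 90%; 4 = 70-90%; 3 = 50-70%; 2 = 30-50%; 1 = 10-30%; 0 = under 10%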; conditions: dose 100 g active ingredient per 10 ares, examined on the 21st day after treatment, standards of Table 44
How it was run: as §1

barnyard grass (Ec) [3] = assay: Test Example 2: herbicidal effects by upland soil treatment; parameters: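 0-5 growth inhibition grade; 5 = over 90%; 4 = 70-90%; 3 = 50-70%; 2 = 30-50%; 1 = 10-30%; 0 = under 10%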; conditions: dose 100 g active ingredient per 10 ares, examined on the 21st day after treatment
How it was run: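 Pre-emergence test: barnyard grass and green foxtail sown in upland soil, then soil surface sprayed with wettable-powder formulation at 100 g active ingredient per 10 ares (100 l per 10 ares). Grown in greenhouse; herbicidal effect scored on a rating scale 21 days after treatment.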

barnyard grass (Ec) [4] = assay: Test Example 3: herbicidal effects by foliage treatment in upland field; parameters: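 0-5 growth inhibition grade; 5 = over 90%; 4 = 70-90%; 3 = 50-70%; 2 = 30-50%; 1 = 10-30%; 0 = under 10%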; conditions: dose 100 g active ingredient per 10 ares, examined on the 14th day after treatment
How it was run: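 Barnyard grass and green foxtail were grown in upland soil for 2 weeks in a greenhouse. A water-diluted wettable powder was sprayed over the foliage at 100 l per 10 ares, giving 100 g active ingredient per 10 ares. Herbicidal effect was scored on day 14 after treatment.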

barnyard grass (Eo) [5] = assay: Test Example 4: selectivity for a crop plant by flooded paddy field treatment; parameters: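 0-5 growth inhibition grade; 5 = over 90%; 4 = 70-90%; 3 = 50-70%; 2 = 30-50%; 1 = 10-30%; 0 = under 10%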; conditions: barnyard grass, dose 25 gai/10a, 21st day after treatment, index per Table 44
How it was run: (§2)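 Paddled paddy soil in pots sown with barnyard grass and monochoria, with second-leaf-stage rice transplanted, under 3 cm of water. Next day a diluted wettable powder was dripped onto the water at 25 g active ingredient per 10 ares; effects scored on a rating scale 21 days later in a greenhouse.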

monochoria (Mo) [6] = assay: as above; parameters: scale not given here; conditions: monochoria, dose 25 gai/10a, 21st day after treatment, index per Table 44
How it was run: as §2

rice (Or) = assay: as above; parameters: scale not given here; conditions: rice transplanted at second leaf stage, dose 25 gai/10a, 21st day after treatment, index per Table 44
How it was run: as §2

| Structure (SMILES) | herbicidal effects, Eo (barnyard grass) (barnyard grass (Eo) [1]) | herbicidal effects, Mo (monochoria) (monochoria (Mo) [2]) | Ec (herbicidal effects, index) (barnyard grass (Ec) [3]) | Ec (herbicidal effects, index) (barnyard grass (Ec) [4]) | Eo (herbicidal effect index) (barnyard grass (Eo) [5]) | Mo (herbicidal effect index) (monochoria (Mo) [6]) | Or (herbicidal effect index on crop) (rice (Or)) |
| --- | --- | --- | --- | --- | --- | --- | --- |
| CCOC(OCC)C(c1cncnc1C(C)C)N(C)C(=O)Cc1ccc(F)cc1 (racemic) [1-455] | 5 | 5 | 5 | 4 | 5 | 5 | 1 |
| COc1ccccc1C(c1cncnc1C(F)(F)F)N(C)C(=O)Cc1ccc(Cl)cc1 (racemic) [1-490] | 5 | 5 | 5 | 4 | 5 | 5 | 0 |
| COc1ccc(C(c2cncnc2C(F)(F)F)N(C)C(=O)Cc2ccccc2)cc1 (racemic) [1-484] | 5 | 5 | 5 | 5 | 5 | 5 | 1 |
| CC(C)c1ncncc1C(C(C)C)N(C)C(=O)Cc1ccc(Cl)s1 (racemic) [2-71] | 5 | 5 | 5 | 5 | 5 | 5 | 1 |
| CN(C(=O)Cc1ccc(Cl)cc1)C(c1ccsc1)c1cncnc1C(F)(F)F (racemic) [1-442] | 5 | 5 | 5 | 4 | 5 | 5 | 1 |
| CN(C(=O)Cc1ccc(F)cc1)C(c1ccccc1F)c1cncnc1C(F)(F)F (racemic) [1-547] | 5 | 5 | 5 | 4 | 5 | 5 | 1 |
| Cc1ccc(CC(=O)N(C)C(c2cncnc2C(F)(F)F)C(C)C)s1 (racemic) [2-50] | 5 | 5 | 5 | 4 | 5 | 5 | 1 |
| COc1ncncc1C(C(C)C)N(C)C(=O)Cc1ccccc1 (racemic) [1-401] | 5 | 5 | 5 | 5 | 5 | 5 | 1 |
| COC(C)(OC)c1ncncc1C(C(C)C)N(C)C(=O)Cc1ccc(Cl)cc1 (racemic) [1-517] | 5 | 5 | 5 | 4 | 5 | 5 | 1 |
| CCc1ncncc1C(N(C)C(=O)Cc1ccc(Cl)cc1)C(C)(C)C (racemic) [1-566] | 5 | 5 | 5 | 4 | 5 | 5 | 1 |
| CC(C)C(c1cncnc1C#N)N(C)C(=O)Cc1ccc(F)cc1 (racemic) [1-505] | 5 | 5 | 5 | 5 | 5 | 5 | 0 |
| CC(C)C(c1cncnc1C#N)N(C)C(=O)Cc1ccc(Cl)cc1 (racemic) [1-506] | 5 | 5 | 5 | 4 | 5 | 5 | 1 |
| CC(C)C(c1cncnc1C(F)(F)F)N(CC#N)C(=O)Cc1ccc(F)cc1 (racemic) [1-579] | 5 | 5 | 5 | 4 | 5 | 5 | 1 |
| Cc1ccc(CC(=O)N(C)C(c2cncnc2C(F)(F)F)C2(C)CC2)cc1 (racemic) [1-412] | 5 | 5 | 5 | 4 | 5 | 5 | 1 |
| CCCc1ncncc1C(CCC)N(C)C(=O)Cc1ccccc1 (racemic) [1-492] | 5 | 5 | 5 | 5 | 5 | 5 | 0 |
| C#CCN(C(=O)Cc1ccc(F)cc1)C(CCC)c1cncnc1CC (racemic) [1-607] | 5 | 5 | 4 | 4 | 5 | 5 | 1 |
| CON(C(=O)Cc1ccc(F)cc1)C(c1cncnc1C(F)(F)F)C(C)C (racemic) [1-333] | 5 | 5 | 5 | 4 | 5 | 5 | 1 |
| C#CCN(C(=O)Cc1ccccc1)C(c1cncnc1CC)C(C)C (racemic) [1-558] | 5 | 5 | 5 | 4 | 5 | 5 | 1 |
| CC(C)C(c1cncnc1C(F)(F)F)N(C)C(=O)Cc1ccc(F)c(F)c1F (racemic) [1-417] | 5 | 5 | 5 | 4 | 5 | 5 | 1 |
